Data from publication PMC9421655, “Novel Antagonist of the Type 2 Lysophosphatidic Acid Receptor (LPA2), UCM-14216, Ameliorates Spinal Cord Injury in Mice” (Journal of Medicinal Chemistry, 2022).

Biological target: LPA1 (Homo sapiens, UniProt Q92633)
Assay: cell-based
Details: maximum blockade of activation induced by 10 μM LPA (18:1) at 10 μM compound; N.E. = no effect at 10 μM
Procedure: Cells stably expressing the corresponding LPA1–3 receptor were grown as described previously.[18] Changes in intracellular calcium levels were measured by using the fluorescent calcium sensitive dye Fluo-4 NW (Invitrogen). RH7777 cells or B103 cells were plated on poly-D-lysine or collagen coated, respectively, black-wall clear-bottom 96-well plates (Corning) at a density of 50 000 cells/well and cultured overnight. The culture medium was then replaced with 100 μL of Fluo-4 NW dye loading solution containing 2.5 μM of probenecid and incubated for 30 min at 37 °C followed by an additional 30 min at rt. […] Fluorescence changes were registered in a FluoStar Optima instrument (BMG Labtech) at 525 nm using an excitation wavelength of 494 nm. […] The data presented are from two to four independent experiments carried out in triplicate or quadruplicate. Dose–response curves were generated and IC50 values calculated by nonlinear regression analysis using Prism software version 5 (GraphPad Software Inc., San Diego, CA, USA).

Chain of LPA1 (Q92633 whole entry, species assumed): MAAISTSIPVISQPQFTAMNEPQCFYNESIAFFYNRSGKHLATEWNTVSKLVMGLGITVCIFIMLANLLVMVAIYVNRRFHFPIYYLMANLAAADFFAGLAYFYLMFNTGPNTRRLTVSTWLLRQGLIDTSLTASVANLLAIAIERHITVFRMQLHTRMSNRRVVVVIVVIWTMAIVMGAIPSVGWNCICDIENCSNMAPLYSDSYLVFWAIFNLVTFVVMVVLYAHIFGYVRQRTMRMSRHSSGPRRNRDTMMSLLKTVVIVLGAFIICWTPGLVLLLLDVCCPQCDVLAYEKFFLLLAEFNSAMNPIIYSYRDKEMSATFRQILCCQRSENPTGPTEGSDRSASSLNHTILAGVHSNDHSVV

Structure (SMILES): Cc1[nH]nc(-c2ccc(OCc3nnn[nH]3)cc2O)c1Oc1ccc(Cl)cc1Cl [Compound 54]
- Emax (%) LPA1: inactive and N.E.
